# Literature values as cited in patent publication US20260216276A1, “COMPOSITIONS AND METHODS FOR MODULATING COMPLEMENT ACTIVITY” (UCB HOLDINGS, INC., priority 2019, published 2026).
# Starred links: 1 amine or outer side, 2 acyl side, 3 side chain; linkers in the order of their positions; H or OH if unused. Positions of bridges follow the written chain, without caps; N, C: chain ends. Non-standard residues stand in square brackets, D forms with d. Residues, ends and D or L forms follow the SMILES beside them. Groups on a side chain read outwards from the residue. *: point of attachment. PEG24 = NCCOCCOCCOCCOCCOCCOCCOCCOCCOCCOCCOCCOCCOCCOCCOCCOCCOCCOCCOCCOCCOCCOCCOCCOCCC(=O)O; X1 = N=C(N)NCCC[C@H](N[*:1])C(=O)C[C@@H](Cc1ccccc1)C(=O)[*:2]; Trp(7-aza) = N[C@@H](Cc1c[nH]c2ncccc12)C(=O)O; γGlu = O=C(O)[C@H](CCC(=O)[*:2])N[*:1]; Palmitoyl = CCCCCCCCCCCCCCCC(=O)*; NMeD = CN[C@@H](CC(=O)O)C(=O)O; Chg = N[C@H](C(=O)O)C1CCCCC1; Tle = CC(C)(C)[C@H](N)C(=O)O
# Tests used:
# [1] = tested on: surface-bound C5b-9 or soluble membrane attack complex (sC5b-9); settings: unlike eculizumab; cited from earlier work
# [2] = tested on: complement component 5 (C5); settings: including p.R885>H/C; cited from earlier work
smiles,measurement,setting,value
CCCCCCCCCCCCCCCC(=O)N[C@@H](CCC(=O)NCCOCCOCCOCCOCCOCCOCCOCCOCCOCCOCCOCCOCCOCCOCCOCCOCCOCCOCCOCCOCCOCCOCCOCCOCCC(=O)NCCCC[C@H](NC(=O)[C@@H](NC(=O)[C@@H]1CCCN1C(=O)[C@H](Cc1ccc(O)cc1)NC(=O)[C@H](CCC(=O)[O-])NC(=O)[C@H](Cc1c[nH]c2ncccc12)NC(=O)[C@H](Cc1ccc(O)cc1)NC(=O)[C@@H](NC(=O)[C@H](CC(=O)[O-])N(C)C(=O)[C@@H]1CC(=O)NCCCC[C@H](NC(C)=O)C(=O)N[C@@H](C(C)C)C(=O)N[C@@H](CCC(=O)O)C(=O)N[C@@H](CCCNC(=N)N)C(=O)C[C@@H](Cc2ccccc2)C(=O)N1)C(C)(C)C)C1CCCCC1)C(=O)[O-])C(=O)[O-].[Na+].[Na+].[Na+].[Na+] [zilucoplan] (Ac-KVE[X1]D[NMeD][Tle]Y[Trp(7-aza)]EYP[Chg]K([PEG24-γGlu-Palmitoyl])-OH; lactam 1-5),binding to surface-bound C5b-9 or sC5b-9,[1],does not bind
same,binding and inhibitory activities in the presence of clinically relevant human C5 polymorphisms,[2],not affected
